Values of other authors, collected in patent US20080138388A1 (priority 2005, published 2008).
Read-outs that look alike come from different tables or passages of the source.

## Nc1c(Br)cc(Br)cc1CN[C@H]1CC[C@H](O)CC1 [ambroxol]
Free state
  logP (octanol-water partition coefficient, free state): 3.00

## CCOC(=O)[C@H](CCc1ccccc1)N[C@@H](C)C(=O)N1[C@H](C(=O)O)C[C@H]2CCCC[C@@H]21 [trandopril]
  logP (octanol-water partition coefficient, free state): 4.00

## CCOc1ccccc1OCCN[C@H](C)Cc1ccc(OC)c(S(N)(=O)=O)c1 [tamsulosin]
Free state
  logP (octanol-water partition coefficient, free state): 3.22

## OC(CCN1CCCCC1)(c1ccccc1)c1ccccc1 [pridinol]
Free state
  logP (octanol-water partition coefficient, free state): 3.79

## CCCN1C[C@H](CSC)C[C@@H]2c3cccc4[nH]cc(c34)C[C@H]21 [pergolide]
Free state
  logP (octanol-water partition coefficient, free state): 4.07
